Molecules are shown by their SMILES. Where two headings read alike, the source gives them in different places.

The source of these data is US9451775B2, “Heterocyclic compounds as pesticides” (Bayer Intellectual Property GmbH, priority 2008, dated 2016).

A short description of data set [1]: logP determination by HPLC (formic acid method). The data set is classed as physicochemical. The conditions noted are these: read-out: logP (HCOOH). In a few lines: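 Reversed-phase C18 HPLC at 55 °C, pH 3.4, with a 4.25 min gradient from 10% to 95% acetonitrile (formic acid-modified water/acetonitrile phases). logP was derived from retention time by linear interpolation between unbranched alkan-2-ones (C3-C16) of known logP.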

Data set [2] relates to green peach aphid (Myzus persicae). Put plainly: Myzus test (spray treatment). It counts as in vivo. Conditions: foliar, read-out: activity (effect in %, aphids killed). In a few lines: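 Chinese cabbage leaf discs heavily infested with all stages of the aphid are sprayed with compound formulated in acetone/dimethylformamide with alkylaryl polyglycol ether emulsifier, diluted in emulsifier-containing water. After a set period, kill is scored in %: 100% all aphids dead, 0% none.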

Data set [3] deals with greenhouse red spidermite (Tetranychus urticae). Put plainly: Tetranychus test, OP-resistant (spray treatment). It counts as in vivo. Conditions: application rate of 100 g/ha; sprayed bean leaf discs. The method, then:
Tetranychus Test, OP-Resistant (Spray Treatment)
• Solvents: 78.0 parts by weight of acetone • 1.5 parts by weight of dimethylformamide • Emulsifier: 0.5 part by weight of alkylaryl polyglycol ether
To produce a suitable preparation of active compound, 1 part by weight of active compound is mixed with the stated amounts of solvent and emulsifier, and the concentrate is diluted with emulsifier-containing water to the desired concentration.
Discs of the leaves of beans (Phaseolus vulgaris) which are infested by all stages of the greenhouse red spidermite (Tetranychus urticae) are sprayed with an active compound preparation of the desired concentration.
After the desired period of time, the effect in % is determined. 100% means that all spidermites have been killed; 0% means that none of the spidermites have been killed.

The subject of data set [4] is Boophilus microplus. Kind of data set: Boophilus microplus test (injection). The data set is classed as in vivo. The conditions noted are these: application rate of 20 μg/animal; injected into the abdomen. The method, then: Boophilus microplus Test (Injection) • Solvent: Dimethyl sulphoxide To produce a suitable preparation of active compound, 1 part by weight of active compound is mixed with the stated amounts of solvent, and the concentrate is diluted with water to the desired concentration. The solution of active compound is injected into the abdomen (Boophilus microplus), and the animals are transferred into dishes and stored in a climatized room. The activity is checked by examination for deposition of fertile eggs, After the desired period of time, the effect in % is determined. 100% means that none of the ticks has laid fertile eggs.

Setting [5] is: reversed-phase HPLC column (C18), pH 3.4, HPLC on reversed-phase column (C18), acidic range (pH 3.4), 55° C.
[6] abbreviates: application rate of 500 g/ha, sprayed Chinese cabbage leaf discs.
The mark [7] stands for this setting: reversed-phase HPLC column (C18), pH 3.4, values printed in the text of the preparation examples, formic acid method.

For the compound `Cc1nc(-c2cccnc2)sc1-c1ccn(Cc2ccccn2)n1` [Ex. No. 27], the chromatographic logP in data set [1] (setting [5]) is 1.69. Also, in data set [2] (setting [6]), the pest or weed control at 500 g/ha was at least 80%. In addition, the “activity (effect in %, spidermites killed)” value in data set [3] is recorded as at least 80%.
Turning to `FC(F)(F)c1cccc(-c2cnc(-c3cccnc3)s2)n1` [Ex. No. 49], the chromatographic logP in data set [1] (setting [5]) stood at 2.81. Also, the pest or weed control at 500 g/ha in data set [2] (setting [6]) was at least 80%. For the same compound, the “activity (effect in %, deposition of fertile eggs)” value in data set [4] is listed as at least 80%.
For `Cc1nc(-c2cccnc2)sc1-c1cccc(C(F)(F)F)c1` [compound 17], the chromatographic logP in data set [1] (setting [5]) was 3.55. Further, in data set [2] (setting [6]), the pest or weed control at 500 g/ha was at least 80%.
Turning to `Cc1nc(-c2cccnc2)sc1-c1ccnc(C(F)(F)C(F)(F)C(F)(F)F)n1` [compound 60], in data set [1] (HPLC on reversed-phase column (C18), acidic range (pH 3.4), 55° C.), the chromatographic logP was 3.84. Moreover, the pest or weed control at 500 g/ha in data set [2] (in Brassica rapa) was at least 80%.
On to `Cc1nc(-c2cccnc2)sc1-c1ccn(-c2ncccc2[N+](=O)[O-])n1` [compound 77], for which the chromatographic logP in data set [1] (setting [5]) was determined as 2.5. In addition, the pest or weed control at 500 g/ha in data set [2] (setting [6]) was at least 80%.
For `Cc1nc(-c2cccnc2)sc1-c1cccc(-n2ccnn2)n1` [compound 154], in data set [1] (setting [5]), the chromatographic logP was 2.13. Besides, the pest or weed control at 500 g/ha in data set [2] (setting [6]) is at least 80%.
As for `Cc1nc(-c2cccnc2)sc1-c1cccc(=O)[nH]1` [compound 32], the chromatographic logP in data set [1] (setting [5]) was 1.23. Also, the pest or weed control at 500 g/ha in data set [2] (setting [6]) was at least 80%.
Turning to `c1cncc(-c2nnc(-c3ccncc3)s2)c1` [compound 158], in data set [1] (setting [5]), the chromatographic logP is 1.41. In data set [2] (setting [6]), the pest or weed control at 500 g/ha was at least 80%.
Take `Cc1nc(-c2cccnc2)sc1-c1ccn(-c2nnc(C(C)(C)C)s2)n1` [compound 83]: in data set [1] (setting [5]), the chromatographic logP was 3.63. In data set [2] (setting [6]), the pest or weed control at 500 g/ha was at least 80%.
For the compound `Cc1nc(-c2cccnc2)sc1-c1cccc(S(C)(=O)=O)n1` [compound 68], in data set [1] (setting [5]), the chromatographic logP worked out at 1.62. Further, in data set [2] (setting [6]), the pest or weed control at 500 g/ha was at least 80%.
Take `CCc1cccc(-c2nccc(-c3sc(-c4cccnc4)nc3C)n2)n1` [compound 57]: the chromatographic logP in data set [1] (setting [5]) was determined as 1.88. Moreover, the pest or weed control at 500 g/ha in data set [2] (setting [6]) was at least 80%.
As for `Cc1nc(-c2cccnc2)sc1-c1ccn(-c2ncccn2)n1` [compound 22], the chromatographic logP in data set [1] (setting [5]) was 1.74. Besides, in data set [2] (setting [6]), the pest or weed control at 500 g/ha is at least 80%.
The matching figures for `Cn1nc(-c2cccnc2)cc1C1=NN(c2ncccn2)CCO1` [compound 168]: 0.95 and at least 80%.
The matching figures for `Cc1nc(-c2cccnc2)sc1-c1ccn(-c2ccccn2)n1` [compound 24]: 2.94 and at least 80%.
Turning to `Cc1nc(-c2cccnc2)sc1-c1ccnc(-c2ncccn2)n1` [Preparation Example 1, 4-(4-Methyl-2-pyridin-3-ylthiazol-5-yl)-[2,2′]bipyrimidinyl], the chromatographic logP in data set [1] (setting [5]) and in data set [1] (setting [7]) was 1.17 in each case. The pest or weed control at 500 g/ha in data set [2] (in Brassica rapa) was at least 80%.
As to `COc1cc(OC)nc(-n2ccc(-c3sc(-c4cccnc4)nc3C)n2)n1` [compound 81], in data set [1] (setting [5]), the chromatographic logP was found to be 2.8. The pest or weed control at 500 g/ha in data set [2] (setting [6]) is at least 80%.
The matching figures for `Cc1nc(-c2cccnc2)sc1-c1cccc(C(F)(F)F)n1` [compound 21]: 3.01 and at least 80%.
Take `Cc1nc(-c2nccc(-c3sc(-c4cccnc4)nc3C)n2)cs1` [compound 56]: the chromatographic logP in data set [1] (setting [5]) was determined as 2.08. Besides, in data set [2] (setting [6]), the pest or weed control at 500 g/ha is at least 80%.
For `Cc1nc(-c2cccnc2)sc1C1=NCC(c2ccccn2)O1` (stereo not drawn) [compound 16], in that order: 1.72 and at least 80%.
The matching figures for `Cc1nc(-c2cccnc2)sc1-c1ccn(C(=O)NC(C)COC(C)C)n1` (stereo not drawn) [compound 117]: 3.18 and at least 80%.
For `Cc1nc(-c2cccnc2)sc1-c1nc(C(C)C)no1` [compound 62], in that order: 3.23 and at least 80%.
For the compound `CCCOCC(C)NC(=O)n1ccc(-c2sc(-c3cccnc3)nc2C)n1` (stereo not drawn) [compound 114], the chromatographic logP in data set [1] (setting [5]) came to 3.27. For the same compound, the pest or weed control at 500 g/ha in data set [2] (setting [6]) is at least 80%.
As for `Cc1nc(-c2cccnc2)sc1-c1cccc(-c2ncccn2)n1` [Preparation Example 6, 2-[6-(4-Methyl-2-pyridin-3-ylthiazol-5-yl)pyridin-2-yl]pyrimidine], the chromatographic logP in data set [1] (setting [5]) came out at 1.73; in data set [1] (setting [7]) it was 1.75. In data set [2] (in Brassica rapa), the pest or weed control at 500 g/ha is at least 80%.
On to `Cc1nc(-c2cccnc2)sc1-c1ccn(-c2nnc(C3CCCC3)s2)n1` [compound 107], for which the chromatographic logP in data set [1] (setting [5]) worked out at 3.85. Also, the pest or weed control at 500 g/ha in data set [2] (setting [6]) is at least 80%.
With `c1cnc(-c2cccc(-c3cnc(-c4cccnc4)s3)n2)nc1` [Preparation Example 5, 2-[6-(2-Pyridin-3-ylthiazol-5-yl)pyridin-2-yl]pyrimidine], the chromatographic logP in data set [1] (setting [5]) and in data set [1] (setting [7]) was 1.53 in each case. Further, in data set [2] (setting [6]), the pest or weed control at 500 g/ha was at least 80%.
As to `Cn1nc(-c2cccnc2)cc1-c1ccn(-c2ncccn2)n1` [Preparation Example 11], the chromatographic logP in data set [1] (setting [5]) and in data set [1] (setting [7]) was 1 each time. For the same compound, the pest or weed control at 500 g/ha in data set [2] (setting [6]) was at least 80%.
For the compound `Cc1nc(-c2cccnc2)sc1-c1ccnc(C(F)(F)F)n1` [compound 109], the chromatographic logP in data set [1] (setting [5]) came out at 2.72. In data set [2] (setting [6]), the pest or weed control at 500 g/ha was at least 80%.
The matching figures for `FC(F)(F)Oc1cccc(-c2nnc(-c3cccnc3)s2)c1` [compound 159]: 3.16 and at least 80%.
For the compound `c1cnc(-n2ccc(-c3cnc(-c4cccnc4)s3)n2)nc1` [compound 89], in data set [1] (setting [5]), the chromatographic logP was 1.48. Besides, the pest or weed control at 500 g/ha in data set [2] (setting [6]) is at least 80%.
As to `Cc1nc(-c2cccnc2)sc1-n1ccc([N+](=O)[O-])n1` [compound 35], the chromatographic logP in data set [1] (setting [5]) came to 1.92. For the same compound, the pest or weed control at 500 g/ha in data set [2] (setting [6]) is at least 80%.
The matching figures for `Cn1nc(-c2cccnc2)cc1-c1ccnc(-c2ccccn2)n1` [compound 171]: 0.87 and at least 80%.
In the case of `Cc1nc(-c2cccnc2)sc1-c1ccnn1-c1ncccn1` [compound 26], the chromatographic logP in data set [1] (setting [5]) is 1.47. Also, the pest or weed control at 500 g/ha in data set [2] (setting [6]) is at least 80%.
For `c1cncc(-c2ncc(-c3cccc(-n4nccn4)n3)s2)c1` [compound 155], in that order: 1.89 and at least 80%.
Turning to `Cc1nc(-c2cccnc2)sc1-c1cc(C(F)(F)F)ncn1` [compound 111], in data set [1] (setting [5]), the chromatographic logP was found to be 2.8. Moreover, in data set [2] (setting [6]), the pest or weed control at 500 g/ha is at least 80%.
As for `COc1cc(OC)nc(-c2noc(-c3sc(-c4cccnc4)nc3C)n2)n1` [compound 74], in data set [1] (setting [5]), the chromatographic logP stood at 2.81. Besides, the pest or weed control at 500 g/ha in data set [2] (setting [6]) is at least 80%.
In the case of `Cc1nc(-c2cccnc2)sc1-c1ccnc(-c2ncccc2Cl)n1` [compound 41], the chromatographic logP in data set [1] (setting [5]) was 2.03. Moreover, in data set [2] (setting [6]), the pest or weed control at 500 g/ha is at least 80%.
Turning to `Cc1nc(-c2cccnc2)sc1-c1ccc(C(F)(F)F)nc1` [compound 144], the chromatographic logP in data set [1] (setting [5]) amounted to 2.72. Further, in data set [2] (setting [6]), the pest or weed control at 500 g/ha is at least 80%.
The matching figures for `Cc1nc(-c2cccnc2)sc1-c1nc(-c2cccnc2)no1` [compound 63]: 2.51 and at least 80%.
The matching figures for `Cc1nc(-c2cccnc2)sc1-c1cccc(-n2nc(C(F)(F)F)n(C)c2=O)n1` [compound 156]: 2.65 and at least 80%.
The matching figures for `Cc1nc(-c2cccnc2)sc1-c1ccn(C(=S)NCC(C)C)n1` [compound 143]: 4.28 and at least 80%.
Take `c1cncc(-c2nnc(-c3cc[nH]n3)s2)c1` [compound 162]: the chromatographic logP in data set [1] (setting [5]) is 0.84. Also, the pest or weed control at 500 g/ha in data set [2] (setting [6]) was at least 80%.
In the case of `Cc1nc(-c2cccnc2)sc1-c1nc(-c2cc3ccccc3cn2)no1` [compound 72], the chromatographic logP in data set [1] (setting [5]) was 3.11. In data set [2] (setting [6]), the pest or weed control at 500 g/ha was at least 80%.
Regarding `Cn1nc(-c2cccnc2)cc1-c1ccnc(-c2ncccn2)n1` [Preparation Example 12], the chromatographic logP in data set [1] (setting [5]) and in data set [1] (setting [7]) was 0.65 each time. Besides, the pest or weed control at 500 g/ha in data set [2] (in Brassica rapa) was at least 80%.
